Test results reported in patent US20240382629A1, “HETEROBIVALENT AND HOMOBIVALENT AGENTS TARGETING FIBROBLAST ACTIVATION PROTEIN ALPHA AND/OR PROSTATE-SPECIFIC MEMBRANE ANTIGEN” (The Johns Hopkins University, priority 2021, published 2024).
Where “and” joins values, the source holds several entries; their conditions need not be identical. Identical values can stand only once.

System: U87 tumor
Assay: Biodistribution ([^18F]JHU1221823), carrier / specific activity study
Format: in vivo, mouse
Conditions: individual mouse
Source text: Biodistribution of Representative Compounds

[1] = NOD/SCID, U87 tumor, Carrier 700, 60 min post injection
[2] = Nude mice, U87 tumor, Baseline (~5000 mCi/μmol), 60 min post injection
[3] = Nude mice, U87 tumor, Carrier 350 (350 mCi/μmol), 60 min post injection
[4] = Nude mice, U87 tumor, Carrier 700, 60 min post injection
[5] = U87 tumor, Baseline, second block (stands before <NOD/SCID> heading), 60 min post injection

## N#C[C@@H]1CCCN1C(=O)CNC(=O)c1ccnc2ccc(OCCCNC(=O)CCOCCOCCOCCOCCNC(=O)[C@H](CCCCNC(=O)c3ccc([18F])nc3)NC(=O)CN3CCN(CC(=O)O)CCN(CC(=O)O)CCN(CC(=O)O)CC3)cc12 [[^18F]JHU1221823]
[1]
  Liver % ID/g: 2.36 % ID/g
  Lung % ID/g: 3.66 % ID/g
  Muscle % ID/g: 1.99 % ID/g
  Pancreas % ID/g: 13.03 % ID/g
  Salivary gland % ID/g: 11.31 % ID/g
  Small intestine % ID/g: 3.48 % ID/g
  Spleen % ID/g: 1.46 % ID/g
  Stomach % ID/g: 1.64 % ID/g
  Tumor % ID/g: 7.79 % ID/g
[2]
  Bladder % ID/g: 2.02 % ID/g and 2.74 % ID/g
  Blood % ID/g: 10.83 % ID/g and 12.08 % ID/g
  Brain % ID/g: 0.22 % ID/g and 0.24 % ID/g
  Fat % ID/g: 1.10 % ID/g and 0.89 % ID/g
  Femur % ID/g: 1.98 % ID/g and 2.84 % ID/g
  Heart % ID/g: 5.09 % ID/g and 5.98 % ID/g
  Kidney % ID/g: 2.76 % ID/g and 3.06 % ID/g
  Large intestine % ID/g: 1.38 % ID/g and 1.42 % ID/g
  Liver % ID/g: 3.56 % ID/g and 3.06 % ID/g
  Lung % ID/g: 6.48 % ID/g and 7.46 % ID/g
  Muscle % ID/g: 1.44 % ID/g and 2.06 % ID/g
  Pancreas % ID/g: 3.42 % ID/g and 3.30 % ID/g
  Salivary gland % ID/g: 6.35 % ID/g and 7.47 % ID/g
  Small intestine % ID/g: 2.47 % ID/g and 2.93 % ID/g
  Spleen % ID/g: 2.17 % ID/g and 1.96 % ID/g
  Stomach % ID/g: 1.14 % ID/g and 1.32 % ID/g
  Tumor % ID/g: 2.14 % ID/g and 2.52 % ID/g
[3]
  Bladder % ID/g: 1.62 % ID/g and 1.85 % ID/g
  Blood % ID/g: 6.11 % ID/g and 4.56 % ID/g
  Brain % ID/g: 0.16 % ID/g and 0.12 % ID/g
  Fat % ID/g: 0.54 % ID/g and 1.24 % ID/g
  Femur % ID/g: 3.83 % ID/g and 4.47 % ID/g
  Heart % ID/g: 2.83 % ID/g and 2.18 % ID/g
  Kidney % ID/g: 2.25 % ID/g and 1.88 % ID/g
  Large intestine % ID/g: 1.92 % ID/g and 1.61 % ID/g
  Liver % ID/g: 2.06 % ID/g and 1.75 % ID/g
  Lung % ID/g: 3.70 % ID/g and 3.20 % ID/g
  Muscle % ID/g: 2.58 % ID/g and 2.23 % ID/g
  Pancreas % ID/g: 5.80 % ID/g and 6.78 % ID/g
  Salivary gland % ID/g: 10.81 % ID/g and 11.50 % ID/g
  Small intestine % ID/g: 2.29 % ID/g and 2.54 % ID/g
  Spleen % ID/g: 1.45 % ID/g and 1.12 % ID/g
  Stomach % ID/g: 1.60 % ID/g and 1.53 % ID/g
  Tumor % ID/g: 2.01 % ID/g and 2.53 % ID/g
[4]
  Bladder % ID/g: 2.15 % ID/g and 2.30 % ID/g
  Blood % ID/g: 10.55 % ID/g and 9.33 % ID/g
  Brain % ID/g: 0.21 % ID/g and 0.19 % ID/g
  Fat % ID/g: 0.41 % ID/g and 0.56 % ID/g
  Femur % ID/g: 2.93 % ID/g and 3.18 % ID/g
  Heart % ID/g: 4.92 % ID/g and 4.38 % ID/g
  Kidney % ID/g: 2.54 % ID/g and 2.52 % ID/g
  Large intestine % ID/g: 1.45 % ID/g and 1.79 % ID/g
  Liver % ID/g: 2.76 % ID/g and 2.85 % ID/g
  Lung % ID/g: 6.05 % ID/g and 5.08 % ID/g
  Muscle % ID/g: 2.06 % ID/g and 2.07 % ID/g
  Pancreas % ID/g: 3.40 % ID/g and 4.43 % ID/g
  Salivary gland % ID/g: 9.08 % ID/g and 7.18 % ID/g
  Small intestine % ID/g: 2.37 % ID/g and 1.98 % ID/g
  Spleen % ID/g: 1.75 % ID/g and 1.70 % ID/g
  Stomach % ID/g: 1.18 % ID/g and 1.57 % ID/g
  Tumor % ID/g: 1.81 % ID/g and 2.22 % ID/g
[5]
  Bladder % ID/g: 3.22 % ID/g and 10.62 % ID/g
  Blood % ID/g: 11.98 % ID/g and 10.01 % ID/g
  Brain % ID/g: 0.23 % ID/g and 0.21 % ID/g
  Fat % ID/g: 0.53 % ID/g and 0.71 % ID/g
  Femur % ID/g: 1.95 % ID/g and 2.78 % ID/g
  Heart % ID/g: 7.41 % ID/g and 6.48 % ID/g
  Kidney % ID/g: 3.14 % ID/g and 3.67 % ID/g
  Large intestine % ID/g: 1.66 % ID/g and 2.70 % ID/g
  Liver % ID/g: 4.04 % ID/g and 4.72 % ID/g
  Lung % ID/g: 7.27 % ID/g and 6.79 % ID/g
  Muscle % ID/g: 1.14 % ID/g and 2.13 % ID/g
  Pancreas % ID/g: 6.82 % ID/g and 9.52 % ID/g
  Salivary gland % ID/g: 11.69 % ID/g and 12.09 % ID/g
  Small intestine % ID/g: 3.79 % ID/g and 3.54 % ID/g
  Spleen % ID/g: 2.33 % ID/g and 1.99 % ID/g
  Stomach % ID/g: 1.66 % ID/g and 1.97 % ID/g
  Tumor % ID/g: 1.17 % ID/g and 5.00 % ID/g
Carrier not given
  Bladder % ID/g: 6.41 % ID/g and 2.64 % ID/g
  Blood % ID/g: 9.28 % ID/g and 9.80 % ID/g
  Brain % ID/g: 0.23 % ID/g and 0.22 % ID/g
  Fat % ID/g: 0.47 % ID/g and 1.68 % ID/g
  Femur % ID/g: 2.55 % ID/g and 3.11 % ID/g
  Heart % ID/g: 4.31 % ID/g and 4.98 % ID/g
  Kidney % ID/g: 2.70 % ID/g and 2.77 % ID/g
  Large intestine % ID/g: 1.29 % ID/g and 1.69 % ID/g
  Liver % ID/g: 2.68 % ID/g and 3.29 % ID/g
  Lung % ID/g: 5.58 % ID/g and 5.91 % ID/g
  Muscle % ID/g: 1.79 % ID/g and 1.78 % ID/g
  Pancreas % ID/g: 1.62 % ID/g and 2.66 % ID/g
  Salivary gland % ID/g: 7.44 % ID/g and 6.43 % ID/g
  Small intestine % ID/g: 2.59 % ID/g and 3.46 % ID/g
  Spleen % ID/g: 1.85 % ID/g and 2.43 % ID/g
  Stomach % ID/g: 0.84 % ID/g and 1.45 % ID/g
  Tumor % ID/g: 4.35 % ID/g and 7.0+ % ID/g
